Source: patent US20030077222A1, “Individualization of therapy with analgesics” (McGill University, priority 2001, published 2003)
Like-named read-outs stand apart in the source and are kept apart here. Marks after values point to notes of the source that are not given here.

Columns and labels:
AAMU-Ab = experiment: Competitive antigen ELISA, cross-reactivity of AAMU-Ab; type: binding, rabbit; settings: for % Cross-Reaction AAMU-Ab: competitive antigen ELISA, 0 = absence of inhibition or inhibition no higher than 40% at highest concentration tested (5×10^−3 M)
Description: (§1) Four mature females New Zealand white rabbits (Charles River Canada, St-Constant, Que., Canada) are used for antibody production. The protocol employed in this study was approved by the McGill University Animal Care Committee in accordance with the guidelines from the Canadian Council on Animal Care. Antibodies of the present invention may be monoclonal or polyclonal antibodies.
(§2) A 0.5 mL aliquot of the emulsion ([…] of antigen) is injected per rabbit intramuscularly or subcutaneously. Rabbits are subsequently boosted at intervals of three weeks with […] of antigen emulsified in incomplete Freund's adjuvant. […] Antisera are stored at 4° C. in the presence of 0.01% sodium azide.
(§3) Buffers and water without additives are filtered through millipore filters and kept for 1 week. BSA, antibodies, Tween™ 20 and horse radish peroxidase conjugates are added to these buffers and water just prior to use. Urine samples are usually collected 4 hours after drinking a cup of coffee (instant or brewed with approximately 100 mg of caffeine per cup) and stored at −80° C. The urine samples are diluted 10 times with sodium phosphate buffer (620 mosm, pH 7.50) and are subsequently diluted with water to give concentrations of AAMU and 1X no higher than 3×10^−6 M in the ELISA. All the pipettings are done with an eight-channel pipette, except those of the antibody and sample solutions. Starting with the last well, 100 μL of a carbonate buffer (100 mM, pH 9.6) containing 2.5 μg mL−^1 antibodies are added to each well. After 90 min. at room temperature, the wells are washed three times with […] of TPB: isotonic sodium phosphate buffer (310 mosm, pH 7.50) containing 0.05% Tween™ 20.
(§4) After the initial wash, unoccupied sites are blocked by incubation for 90 min. at room temperature with 100 μL TBP containing 3% BSA. The wells are washed four times with 100 μL TPB. […] The microplate is gently shaken with an orbital shaker at room temperature for 3-4 hours. The wells are washed three times with 100 μL TPB containing 1% BSA and three times with water containing 0.05% Tween™ 20. To the washed plate is added 150 μL of a substrate buffer composed of citric acid (25 mM) and sodium phosphate dibasic buffer (50 mM, pH 5.0) containing 0.06% hydrogen peroxide and 0.04% o-phenylenediamine hydrochloride.
(§5) Buffers and water without additives were filtered through millipore filters and kept for 1 week. BSA, antibodies, Tween™ 20 and horse radish peroxidase conjugates were added to these buffers and water just prior to use. Urine samples were usually collected 4 hours after drinking a cup of coffee (instant or brewed with approximately 100 mg of caffeine per cup) and stored at −80° C. They were diluted 10 times with sodium phosphate buffer (620 mosm, pH 7.50) and were subsequently diluted with water to give concentrations of AAMU and 1X no higher than 3×10^−6 M in the ELISA. All the pipettings were done with an eight-channel pipette, except those of the antibody and sample solutions. Starting with the last well, 100 μL of a carbonate buffer (100 mM, pH 9.6) containing 2.5 μg mL−^1 antibodies was pipetted. After 90 min. at room temperature, the wells were washed three times with 100 μL of TPB: isotonic sodium phosphate buffer (310 mosm, pH 7.50) containing 0.05% Tween™ 20.
(§6) After the initial wash, unoccupied sites were blocked by incubation for 90 min. at room temperature with 100 μL TBP containing 3% BSA. The wells were washed four times with 100 μL TPB. […] The microplate was gently shaken with an orbital shaker at room temperature for 3-4 hours. The wells were washed three times with […] TPB containing 1% BSA and three times with water containing 0.05% Tween™ 20. To the washed plate was added 150 μL of a substrate buffer composed of citric acid (25 mM) and sodium phosphate dibasic buffer (50 mM, pH 5.0) containing 0.06% hydrogen peroxide and 0.04% o-phenylenediamine hydrochloride.

1X-Ab = experiment: Competitive antigen ELISA, cross-reactivity of 1X-Ab; type: binding, rabbit; settings: for % Cross-Reaction 1X-Ab: competitive antigen ELISA, 0 = absence of inhibition or inhibition no higher than 40% at highest concentration tested (5×10^−3 M)
Description: as §1, §2, §3, §4, §5, §6

[1] = cited from earlier work
[2] = cited from earlier work; remark: listed apart in the source

| Compound | % Cross-Reaction AAMU-Ab (AAMU-Ab) | % Cross-Reaction 1X-Ab (1X-Ab) | also measured |
| --- | --- | --- | --- |
| Cn1c(=O)c2c(ncn2C)n(C)c1=O [1,3,7-Trimethyl Xanthine (Caffeine), 1,3,7-Trimethyl Xanthine] | 0% | 0% |  |
| Cn1c(=O)c2[nH]cnc2n(C)c1=O [1,3-Dimethyl Xanthine (Theophylline), 1,3-Dimethyl Xanthine] | 0% | 0.2% |  |
| Cn1c(=O)[nH]c2ncn(C)c2c1=O [1,7-Dimethyl Xanthine (Paraxanthine), 1,7-Dimethyl Xanthine] | 0% | 0.5% |  |
| Cn1c(=O)[nH]c2[nH]c(=O)n(C)c2c1=O [1,7-Dimethyluric acid] | 0% | 0% |  |
| Cn1c(=O)[nH]c2nc[nH]c2c1=O [1-Methyl Xanthine (1X), 1-Methyl Xanthine] | 0% | 100% | IC50 (1X-Ab; read-out: concentration required for 50% inhibition in the competitive antigen ELISA, 1X-Ab): 10 µM |
| Cn1c(=O)[nH]c2[nH]c(=O)[nH]c2c1=O [1-Methyluric acid] | 0% | 11% |  |
| Cn1cnc2c1c(=O)[nH]c(=O)n2C [3,7-Dimethyl Xanthine (Theobromine), 3,7-Dimethyl Xanthine] | 0% | 0% |  |
| Cn1c(=O)[nH]c(=O)c2[nH]cnc21 [3-Methyl Xanthine] | 0% | 0% |  |
| CC(=O)Nc1c(N)n(C)c(=O)n(C)c1=O [5-Acetamino-6-amino-1,3-dimethyluracil] | 0% | 0% |  |
| CC(=O)Nc1c(N)n(C)c(=O)[nH]c1=O [5-Acetamino-6-amino-1-methyluracil] | 100% | 0% | IC50 (AAMU-Ab; read-out: concentration required for 50% inhibition in the competitive antigen ELISA, AAMU-Ab): 1500 nM |
| CC(=O)Nc1c(N)[nH]c(=O)[nH]c1=O [5-Acetamino-6-amino-uracil] | 0.6% | 0% |  |
| Cn1cnc2[nH]c(=O)[nH]c(=O)c21 [7-Methyl Xanthine] | 0% | 0% |  |
| Cc1nc2[nH]c(=O)[nH]c(=O)c2[nH]1 [8-Methyl Xanthine] | 0% | 0% |  |
| Nc1nc2nc[nH]c2c(=O)[nH]1 [Guanine] | 0% | 0% |  |
| O=c1[nH]cnc2nc[nH]c12 [Hypoxanthine] | 0% | 0% |  |
| O=c1cc[nH]c(=O)[nH]1 [Uracil] | 0% | 0% |  |
| O=c1[nH]c(=O)c2[nH]c(=O)[nH]c2[nH]1 [Uric acid] | 0% | 0% |  |
| O=c1[nH]c(=O)c2[nH]cnc2[nH]1 [Xanthine] | 0^a % | 0% |  |
| Nc1ccc(S(=O)(=O)c2ccc(N)cc2)cc1 [dapsone] |  |  | adverse reactions to dapsone ([1]; fast acetylators): 17%; adverse reactions to dapsone ([1]; slow acetylators): 46% |
| COc1cccc(C2(O)CCCCC2CN(C)C)c1 (stereo not drawn) [tramadol] |  |  | experimental pain model procedures with statistically significant effects ([2]; extensive metabolizers (CYP2D6), 15 individuals): seven of seven; experimental pain model procedures with statistically significant effects ([2]; poor metabolizers (CYP2D6), 12 individuals): three of seven |
